The text below walks through data of ChEMBL document CHEMBL1151820, “Antagonists of the P2X(7) receptor. From lead identification to drug development” (J Med Chem, 2009).

In data set [1] the target is T1, P2X purinoceptor 7 (Homo sapiens, UniProt Q99572).
T1 sequence (Q99572 whole entry): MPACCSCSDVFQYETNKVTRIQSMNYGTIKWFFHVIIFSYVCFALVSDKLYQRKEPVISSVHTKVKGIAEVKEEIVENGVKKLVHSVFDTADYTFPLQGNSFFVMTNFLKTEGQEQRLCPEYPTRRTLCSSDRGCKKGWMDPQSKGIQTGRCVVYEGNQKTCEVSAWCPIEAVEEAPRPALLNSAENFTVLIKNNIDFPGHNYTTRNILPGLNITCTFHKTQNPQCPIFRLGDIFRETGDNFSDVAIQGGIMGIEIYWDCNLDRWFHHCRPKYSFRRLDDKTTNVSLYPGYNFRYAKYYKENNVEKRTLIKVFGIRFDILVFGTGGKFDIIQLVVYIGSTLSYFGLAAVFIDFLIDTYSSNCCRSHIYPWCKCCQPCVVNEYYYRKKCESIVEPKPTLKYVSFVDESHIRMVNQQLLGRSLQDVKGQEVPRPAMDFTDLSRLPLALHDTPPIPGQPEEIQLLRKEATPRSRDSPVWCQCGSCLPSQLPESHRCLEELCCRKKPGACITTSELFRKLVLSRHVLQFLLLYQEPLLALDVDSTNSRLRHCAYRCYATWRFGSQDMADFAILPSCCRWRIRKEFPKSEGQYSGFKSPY
As to the kind of experiment: Antagonist activity at P2X7 receptor in human THP1 cells assessed as inhibition of BzATP-induced ethidium uptake. The class given is functional, cell-based, THP-1.

Data set [2] can be described thus: Plasma clearance in rat. The class given is ADME, organism-based.
Data set [3] in a line: Volume of distribution at steady state in rat. The format is ADME, organism-based. The conditions noted are these: in vivo, read-out: Vdss.
Data set [4] is described as follows: Half life in rat. The format is ADME, organism-based. As to conditions: in vivo.
A short description of data set [5]: Bioavailability in rat. As to conditions: in vivo. The format is ADME, organism-based.
In the next data set the test system is Mus musculus. As to the kind of experiment: In vivo receptor activity at P2X7 receptor in mouse model assessed as ATP-induced IL1-beta release. The format is functional.
Data set [6] deals with T2, P2X purinoceptor 7 (Homo sapiens) (UniProt Q99572).
T2 sequence (whole entry): T1 sequence (Q99572 whole entry)
Description: Inhibition of human P2X7 receptor in human PBMC assessed as inhibition of BzATP-induced IL1-beta release at 0.3 uM.

Data set [7] deals with T1, P2X purinoceptor 7. Description: Antagonist activity at human P2X7 receptor expressed in HEK293 cells assessed as inhibition of BzATP-induced calcium influx. The format is functional, cell-based.
Data set [8] addresses T1, P2X purinoceptor 7. Description: Antagonist activity at human P2X7 receptor expressed in HEK293 cells assessed as inhibition of ATP-induced ethidium uptake.
The target of data set [9] is T1, P2X purinoceptor 7. As to the kind of experiment: Antagonist activity at human P2X7 receptor expressed in human U373 cells assessed as inhibition of BzATP-induced Yo-Pro uptake. The format is functional, cell-based, U-373MG ATCC.
The target in data set [10] is T1, P2X purinoceptor 7. Description: Inhibition of human P2X7 receptor assessed as inhibition of BzATP-induced IL1-beta release.
Data set [11] can be described thus: Plasma clearance in Sprague-Dawley rat. The class given is ADME, organism-based.
The nature of data set [12]: Terminal phase volume of distribution in Sprague-Dawley rat. As to conditions: in vivo, read-out: Vbeta. The class given is ADME, organism-based.
Data set [13] in a line: Half life in Sprague-Dawley rat. The class given is ADME, organism-based. As to conditions: in vivo.
Data set [14] in a line: Bioavailability in Sprague-Dawley rat. The conditions noted are these: in vivo. The format is ADME, organism-based.
Data set [15] has as its system Rattus norvegicus. Description: Analgesic activity in po dosed rat model of joint pain assessed as inhibition of FCA-induced weight bearing capacity administered twice daily for 5 days. The conditions noted are these: 120 h. The class given is functional.
Data set [16] deals with Rattus norvegicus. Description: Antiinflammatory activity in po dosed rat acute inflammatory pain model assessed as inhibition of FCA-induced weight bearing capacity. The format is functional.
A short description of data set [17]: Half life in ip dosed rat. The class given is ADME, organism-based. The conditions noted are these: in vivo.
The target of data set [18] is T2, P2X purinoceptor 7 (Homo sapiens). Description: Inhibition of human P2X7 receptor in human PBMC assessed as inhibition of BzATP-induced IL1-beta release at 0.03 uM.
The nature of data set [19]: Plasma clearance in iv dosed rat. The class given is ADME, organism-based.
Data set [20] in a line: Volume of distribution at steady state in iv dosed rat. The class given is ADME, organism-based. The conditions noted are these: in vivo, read-out: Vdss.
The nature of data set [21]: Half life in iv dosed rat. The format is ADME, organism-based. As to conditions: in vivo.
In data set [22] the target is T1, P2X purinoceptor 7. Description: Antagonist activity at P2X7 receptor in human lymphocytes assessed as inhibition of ATP-induced Ba2+ influx. The class given is functional, cell-based.
The target of data set [23] is T2, P2X purinoceptor 7 (Homo sapiens). As to conditions: HEK293, at 3 µM.
The nature of data set [24]: Metabolic stability in human liver microsomes assessed as half life. The format is ADME, Microsome. (Microsomes from liver hold many membrane-bound enzymes, among them those of drug oxidation.)
Data set [25] can be described thus: Oral bioavailability in rat. The format is ADME, organism-based. As to conditions: in vivo.
Data set [26] can be described thus: Protein binding in rat plasma. As to conditions: read-out: PB (converted). The format is ADME, cell-free.
The target of data set [27] is T3, P2X purinoceptor 7 (Rattus norvegicus, UniProt Q64663).
T3 sequence (Q64663 whole entry): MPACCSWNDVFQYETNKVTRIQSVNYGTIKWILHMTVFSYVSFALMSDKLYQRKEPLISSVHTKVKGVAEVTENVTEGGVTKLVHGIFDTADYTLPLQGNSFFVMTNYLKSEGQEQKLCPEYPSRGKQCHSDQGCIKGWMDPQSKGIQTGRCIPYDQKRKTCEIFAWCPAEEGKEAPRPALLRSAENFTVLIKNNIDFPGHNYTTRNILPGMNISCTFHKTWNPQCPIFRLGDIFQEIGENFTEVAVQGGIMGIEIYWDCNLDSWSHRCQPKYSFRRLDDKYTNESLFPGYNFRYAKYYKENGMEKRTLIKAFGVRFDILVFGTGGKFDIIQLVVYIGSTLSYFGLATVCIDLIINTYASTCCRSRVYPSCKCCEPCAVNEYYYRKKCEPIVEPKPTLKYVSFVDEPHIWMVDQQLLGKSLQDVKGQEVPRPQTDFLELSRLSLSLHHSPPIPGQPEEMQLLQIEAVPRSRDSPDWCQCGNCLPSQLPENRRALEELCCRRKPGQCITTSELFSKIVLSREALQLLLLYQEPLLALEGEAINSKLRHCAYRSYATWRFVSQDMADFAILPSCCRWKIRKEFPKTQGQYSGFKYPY
Description: Activity at rat P2X7 receptor expressed in HEK cells assessed as effect on BzATP-induced ethidium uptake. The format is cell-based, HEK293.

The subject of data set [28] is Rattus norvegicus. Description: Antinociceptive activity in ip dosed rat Chung model of neuropathic pain. The class given is functional.

Molecules are shown by their SMILES.

One may read the IC50 as the midpoint of a concentration-inhibition curve. The term clearance denotes the rate of elimination divided by the concentration. The low end stands for inefficient removal, the high end for efficient removal. Broadly, the half-life is how long it takes for the measured level to halve. Broadly, the bioavailability is dose-corrected exposure relative to a reference, in per cent. A low value points to poor availability. As usually defined, the ED50 is the dose at which the effect has come halfway, by size or by number of responders. For `O=C(NCCc1ccccc1Cl)c1cc(-n2ncc(=O)[nH]c2=O)ccc1Cl`, the IC50 on P2X purinoceptor 7 [1] was 316 nM. The clearance in [2] came to 9 mL/min/kg. Besides, the Vd in [3] was 0.3 L/kg. The molecule further showed a half-life in [4] of 180 min. For the same molecule, the bioavailability in [5] is 44%. The ED50 in the data set with Mus musculus was 20 mg/kg.

The inhibition is the change of the read-out against control, counted positive when it falls. For `CC(C)(C)OC(=O)NCC(=O)N1CCc2c(ncnc2NCC(O)C23CC4CC(CC(C4)C2)C3)C1` (configuration not stated), the inhibition in [6] was over 75%.

In general, pIC50 refers to the negative decadic logarithm of the IC50, by convention in mol/L. On to `Cc1n[nH]c(C)c1CC(=O)NCc1ccc(F)c(C(F)(F)F)c1`, for which, at P2X purinoceptor 7 [7] (hek293), the pIC50 is recorded as over 4.7. Further, the IC50 at P2X purinoceptor 7 [8] is under 3.16 µM.

Turning to `O=C(NCC1(O)CCCCCC1)c1cc(-n2ncc(=O)[nH]c2=O)ccc1Cl`, the IC50 at P2X purinoceptor 7 [1] was 100 nM. Moreover, the ED50 in the data set on Mus musculus stood at 2 mg/kg.

In the case of `O=C(CC12CC3CC(CC(C3)C1)C2)Nc1ncnc2c1CCN(S(=O)(=O)c1ccc(F)cc1F)C2`, in [6], the inhibition is over 75%.

As for `Fc1cccc(CNC2=N[C@@H](c3cccc(F)c3)[C@@H](c3cccc(F)c3)N2)c1`, the IC50 is 63.1 nM at P2X purinoceptor 7 [9] and 1260 nM at P2X purinoceptor 7 [10].

`COc1ccc(CC(=O)NC(N/C(=N/C#N)Nc2cccc3ncccc23)C(C)(C)C)cc1OC` (configuration not stated) came in with a clearance in data set [11] of 62 mL/min/kg. In addition, the Vd in data set [12] is 21 L/kg. Further, the half-life in [13] was 240 min. In addition, the bioavailability in [14] was found to be 20%.

Regarding `CN1C(=O)CCC1C(=O)NCc1cccc(C(F)(F)F)c1Cl` (configuration not stated), the ED50 with Rattus norvegicus [15] and with Rattus norvegicus [16] was under 20 mg/kg in each case.

For the molecule `Clc1cccc(-c2nnnn2Cc2cccnc2)c1Cl`, the half-life in data set [17] was 60 min.

For the molecule `O=C(NCC12CC3CC(CC(C3)C1)C2)c1ncnc2c1CCN(Cc1ccccc1)C2`, the inhibition in data set [18] came to 50%.

As to `CN1C(=O)CCC1C(=O)NCc1ccc(Cl)cc1Cl` (configuration not stated), the median effective dose (ED50) with Rattus norvegicus [15] and in the data set on Rattus norvegicus [16] was under 20 mg/kg throughout.

For `Cc1ccccc1N=C(NC#N)N1CCN(C(=O)Nc2ccc(Cl)cc2)C(c2ccccc2)C1` (configuration not stated), the clearance in data set [19] was 68 mL/min/kg. In data set [20], the Vd was 5.3 L/kg. The half-life in data set [21] was 54 min.

On to `CN([C@@H](Cc1ccc(OS(=O)(=O)c2cccc3cnccc23)cc1)C(=O)N1CCN(c2ccccc2)CC1)S(=O)(=O)c1cccc2cnccc12`, for which the results for the IC50 at P2X purinoceptor 7 [7] and at P2X purinoceptor 7 [22] were 50.1 nM and 12.6 nM, respectively. In data set [23], this molecule registered an inhibition of 85%.

Take `O=C(Cc1ccc(C(F)(F)F)c(F)c1)Nc1c(Cl)ccc2c(=O)n(CCO)ccc12`: the concentration for half-maximal inhibition (IC50) at P2X purinoceptor 7 [1] is 6.31 nM. For the same molecule, the half-life in [24] is 222 min. Further, the bioavailability in data set [25] is over 75%.

For the molecule `CN([C@@H](Cc1ccc(OS(=O)(=O)c2cccc3cnccc23)cc1)CN1CCN(c2ccccc2)CC1)S(=O)(=O)c1cccc2cnccc12`, at P2X purinoceptor 7 [22], the IC50 is 15.8 nM.

Consider `Cc1ccc(C(=O)N2CC3CNCC(C2)O3)cc1NC(=O)CC12CC3CC(CC(C3)C1)C2`, for which the fraction unbound in data set [26] is 0.34.

In the case of `Cc1ccccc1Cn1cnnc1-c1cccc(Cl)c1Cl`, the IC50 is 79.4 nM at P2X purinoceptor 7 [1] and 200 nM on P2X purinoceptor 7 [27]. For the same molecule, in the data set on Rattus norvegicus [28], the Efficacy is 68%.

In turn, `Cc1ccc2c(N/C(=N\C#N)N3CCN(C(=O)c4ccc(Cl)cc4)CC3C(C)C)cccc2n1` (configuration not stated) registered a clearance in [19] of 23 mL/min/kg. For the same molecule, in [20], the Vd is 11.8 L/kg. The same molecule gave a half-life in [21] of 264 min. Moreover, the bioavailability in [25] came out at 5%.
